Data published in patent US20190292179A1 (BRISTOL-MYERS SQUIBB COMPANY, priority 2016, published 2019).

molecular target: HIS-TGFβR2 WT (Homo sapiens, UniProt P37173); assay: HTRF probe-displacement assay with HIS-TGFβR2 WT; type: binding; conditions: 1 nM HIS-TGFβR2 WT, labeled probe at Kd, 1 hour at room temperature
Protocol: (§1) The reaction is incubated for 1 hour at room temperature and the HTRF signal was measured on an Envision plate reader (Ex: 340 nm; Em: 520 nm/495 nm). Inhibition data were calculated by comparison to no enzyme control reactions for 100% inhibition and vehicle-only reactions for 0% inhibition. The final concentration of reagents in the assay are 1 nM HIS-TGFβR1 T204D or HIS-TGFβR2 WT, 0.2 nM anti-HIS detection antibody, labeled small molecule probe (at Kd) and 0.5% DMSO. Dose response curves were generated to determine the concentration required inhibiting 50% of kinase activity (IC50). Compounds were dissolved at 10 mM in dimethylsulfoxide (DMSO) and evaluated at eleven concentrations. IC50 values were derived by non-linear regression analysis.

Chain of HIS-TGFβR2 WT (P37173 23-567): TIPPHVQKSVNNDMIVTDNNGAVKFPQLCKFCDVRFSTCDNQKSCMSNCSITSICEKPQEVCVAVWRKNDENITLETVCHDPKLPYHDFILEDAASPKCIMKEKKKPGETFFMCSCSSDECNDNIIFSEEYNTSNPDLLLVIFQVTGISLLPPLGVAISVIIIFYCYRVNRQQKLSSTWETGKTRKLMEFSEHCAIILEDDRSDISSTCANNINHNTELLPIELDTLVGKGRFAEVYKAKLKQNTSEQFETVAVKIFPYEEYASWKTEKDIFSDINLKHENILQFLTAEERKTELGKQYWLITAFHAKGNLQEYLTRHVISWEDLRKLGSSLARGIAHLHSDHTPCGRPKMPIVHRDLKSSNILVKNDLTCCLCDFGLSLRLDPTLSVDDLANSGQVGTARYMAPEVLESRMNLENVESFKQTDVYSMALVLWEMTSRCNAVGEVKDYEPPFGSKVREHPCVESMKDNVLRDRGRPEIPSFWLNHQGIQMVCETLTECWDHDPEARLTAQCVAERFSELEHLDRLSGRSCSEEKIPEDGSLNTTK

Row | Structure (SMILES) | IC50
1 | NC(=O)c1cnc2ccc(-c3c[nH]nc3-c3cccc(C(F)(F)F)n3)cn12 [Example 2, 6-(3-(6-(trifluoromethyl)pyridin-2-yl)-1H-pyrazol-4-yl)imidazo[1,2-a]pyridine-3-carboxamide] | 1.83 µM
2 | N#Cc1cnc2ccc(-c3c[nH]nc3-c3cccc(C(F)F)n3)cn12 [Example 4, 6-(3-(6-(difluoromethyl)pyridin-2-yl)-1H-pyrazol-4-yl)imidazo[1,2-a]pyridine-3-carbonitrile] | 1.11 µM
3 | NC(=O)c1cnc2ccc(-c3c[nH]nc3-c3cccc(C(F)F)n3)cn12 [Example 5, 6-(3-(6-(difluoromethyl)pyridin-2-yl)-1H-pyrazol-4-yl)imidazo[1,2-a]pyridine-3-carboxamide] | 0.193 µM
4 | Cn1cc(-c2ccc3ncc(C(N)=O)n3c2)c(-c2cccc(C(F)(F)F)n2)n1 [Example 10, 6-(1-methyl-3-(6-(trifluoromethyl)pyridin-2-yl)-1H-pyrazol-4-yl)imidazo[1,2-a]pyridine-3-carboxamide] | 8.87 µM
5 | Cc1nc(-c2nn(C)cc2-c2ccc3ncc(C(N)=O)n3c2)ccc1F [Example 12, 6-(3-(5-fluoro-6-methylpyridin-2-yl)-1-methyl-1H-pyrazol-4-yl)imidazo[1,2-a]pyridine-3-carboxamide] | 0.396 µM
6 | NC(=O)c1cnc2ccc(-c3c[nH]nc3-c3ccc(F)cc3)nn12 [Example 14, 6-(3-(4-fluorophenyl)-1H-pyrazol-4-yl)imidazo[1,2-b]pyridazine-3-carboxamide] | 0.885 µM
7 | Cc1cccc(-c2n[nH]cc2-c2ccc3[nH]ncc3c2)n1 [Example 18, 5-(3-(6-methylpyridin-2-yl)-1H-pyrazol-4-yl)-1H-indazole] | 0.752 µM
8 | Cc1cccc(-c2n[nH]cc2-c2ccc3nccn3n2)n1 [Example 19, 6-(3-(6-methylpyridin-2-yl)-1H-pyrazol-4-yl)imidazo[1,2-b]pyridazine] | 0.277 µM
9 | Cc1cccc(-c2n[nH]cc2-c2ccc3ncc(C(N)=O)n3n2)n1 [Example 21, 6-(3-(6-methylpyridin-2-yl)-1H-pyrazol-4-yl)imidazo[1,2-b]pyridazine-3-carboxamide] | 0.205 µM
10 | NC(=O)c1cnc2ccc(-c3cn(CC(F)F)nc3-c3ccc(F)c(Cl)c3)cn12 [Example 62, 6-(3-(3-chloro-4-fluorophenyl)-1-(2,2-difluoroethyl)-1H-pyrazol-4-yl)imidazo[1,2-a]pyridine-3-carboxamide] | 0.518 µM

Next, values leading:

Row | IC50 | Structure (SMILES)
11 | 0.259 µM | N#Cc1cnc2ccc(-c3c[nH]nc3-c3cccc(F)n3)cn12 [Example 6, 6-(3-(6-fluoropyridin-2-yl)-1H-pyrazol-4-yl)imidazo[1,2-a]pyridine-3-carbonitrile]
12 | 5.42 µM | Cc1nc(-c2nn(C)cc2-c2ccc3ncc(C#N)n3c2)ccc1F [Example 11, 6-(3-(5-fluoro-6-methylpyridin-2-yl)-1-methyl-1H-pyrazol-4-yl)imidazo[1,2-a]pyridine-3-carbonitrile]
13 | 0.101 µM | N#Cc1cnc2ccc(-c3c[nH]nc3-c3ccc(F)cc3)nn12 [Example 13, 6-(3-(4-fluorophenyl)-1H-pyrazol-4-yl)imidazo [1,2-b]pyridazine-3-carbonitrile]
14 | 0.368 µM | Cc1cc(-c2n[nH]cc2-c2ccc3ncc(C(N)=O)n3c2)ccc1F [Example 50, 6-(3-(4-fluoro-3-methylphenyl)-1H-pyrazol-4-yl)imidazo[1,2-a]pyridine-3-carboxamide]
15 | 0.143 µM | NC(=O)c1cnc2ccc(-c3c(-c4ccc(F)cc4)n[nH]c3C3CC3)cn12 [Example 85, 6-(5-cyclopropyl-3-(4-fluorophenyl)-1H-pyrazol-4-yl)imidazo[1,2-a]pyridine-3-carboxamide]

molecular target: T1, HIS-TGFβR1 T204D (Homo sapiens, UniProt P36897, T204D); assay: HTRF probe-displacement assay with HIS-TGFβR1 T204D; type: binding; conditions: 1 nM HIS-TGFβR1 T204D, labeled probe at Kd, 1 hour at room temperature
T1 sequence (P36897 34-503 T204D): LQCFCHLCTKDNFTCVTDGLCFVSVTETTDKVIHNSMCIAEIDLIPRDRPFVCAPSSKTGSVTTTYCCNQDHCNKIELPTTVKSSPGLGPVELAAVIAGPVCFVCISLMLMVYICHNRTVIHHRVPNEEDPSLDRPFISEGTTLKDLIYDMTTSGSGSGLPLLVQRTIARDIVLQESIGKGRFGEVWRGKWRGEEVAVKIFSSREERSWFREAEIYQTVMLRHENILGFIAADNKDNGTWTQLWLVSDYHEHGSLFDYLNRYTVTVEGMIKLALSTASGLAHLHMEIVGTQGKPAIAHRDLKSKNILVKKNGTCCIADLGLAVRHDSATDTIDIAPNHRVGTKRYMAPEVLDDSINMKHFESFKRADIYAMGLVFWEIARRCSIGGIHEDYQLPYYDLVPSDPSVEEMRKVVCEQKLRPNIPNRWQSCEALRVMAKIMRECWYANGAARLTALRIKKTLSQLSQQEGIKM
Protocol: as §1

Row | Structure (SMILES) | IC50
16 | NC(=O)c1cnc2ccc(-c3c[nH]nc3-c3cccc(C(F)(F)F)n3)cn12 [Example 2, 6-(3-(6-(trifluoromethyl)pyridin-2-yl)-1H-pyrazol-4-yl)imidazo[1,2-a]pyridine-3-carboxamide] | 0.001 µM
17 | N#Cc1cnc2ccc(-c3c[nH]nc3-c3cccc(C(F)F)n3)cn12 [Example 4, 6-(3-(6-(difluoromethyl)pyridin-2-yl)-1H-pyrazol-4-yl)imidazo[1,2-a]pyridine-3-carbonitrile] | 0.001 µM
18 | Cn1cc(-c2ccc3ncc(C(N)=O)n3c2)c(-c2cccc(C(F)(F)F)n2)n1 [Example 10, 6-(1-methyl-3-(6-(trifluoromethyl)pyridin-2-yl)-1H-pyrazol-4-yl)imidazo[1,2-a]pyridine-3-carboxamide] | 0.001 µM
19 | NC(=O)c1cnc2ccc(-c3c[nH]nc3-c3ccc(F)cc3)nn12 [Example 14, 6-(3-(4-fluorophenyl)-1H-pyrazol-4-yl)imidazo[1,2-b]pyridazine-3-carboxamide] | 0.004 µM
20 | Cc1cccc(-c2c(-c3ccc4ncc(C#N)n4c3)c(C(C)C)nn2C)n1 [Example 117, 6-(3-isopropyl-1-methyl-5-(6-methylpyridin-2-yl)-1H-pyrazol-4-yl)imidazo[1,2-a]pyridine-3-carbonitrile] | 0.009 µM
21 | Cc1cccc(-c2c(-c3ccc4nccn4c3)c(C(C)C)nn2C)n1 [Example 120, 6-(3-isopropyl-1-methyl-5-(6-methylpyridin-2-yl)-1H-pyrazol-4-yl)imidazo[1,2-a]pyridine] | 0.115 µM
22 | CCOC(=O)c1[nH]nc(-c2cccc(C)n2)c1-c1ccc2nccn2c1 [Example 139, ethyl 4-(imidazo[1,2-a]pyridin-6-yl)-3-(6-methylpyridin-2-yl)-1H-pyrazole-5-carboxylate] | 0.002 µM
23 | Cc1cccc(-c2n[nH]c(C(F)F)c2-c2ccc3nccn3c2)n1 [Example 140, 6-(5-(difluoromethyl)-3-(6-methylpyridin-2-yl)-1H-pyrazol-4-yl)imidazo[1,2-a]pyridine] | 0.001 µM

Now from value to compound:

Row | IC50 | Structure (SMILES)
24 | 0.001 µM | Cc1nc(-c2nn(C)cc2-c2ccc3ncc(C#N)n3c2)ccc1F [Example 11, 6-(3-(5-fluoro-6-methylpyridin-2-yl)-1-methyl-1H-pyrazol-4-yl)imidazo[1,2-a]pyridine-3-carbonitrile]
25 | 0.007 µM | N#Cc1cnc2ccc(-c3c[nH]nc3-c3ccc(F)cc3)nn12 [Example 13, 6-(3-(4-fluorophenyl)-1H-pyrazol-4-yl)imidazo [1,2-b]pyridazine-3-carbonitrile]
26 | 0.281 µM | CCOC(=O)c1[nH]nc(-c2ccc(F)cc2)c1-c1ccc2ncc(C#N)n2c1 [Example 128, ethyl 4-(3-cyanoimidazo[1,2-a]pyridin-6-yl)-3-(4-fluorophenyl)-1H-pyrazole-5-carboxylate]
27 | 1.76 µM | N#Cc1cnc2ccc(-c3c(-c4ccc(F)cc4)n[nH]c3C(=O)O)cn12 [Example 129]
28 | 0.145 µM | N#Cc1cnc2ccc(-c3c(-c4ccc(F)cc4)n[nH]c3C(N)=O)cn12 [Example 130, 4-(3-cyanoimidazo[1,2-a]pyridin-6-yl)-3-(4-fluorophenyl)-1H-pyrazole-5-carboxamide]
29 | 1.41 µM | N#Cc1cnc2ccc(-c3c(-c4ccc(F)cc4)n[nH]c3C(=O)NC3CC3)cn12 [Example 131, 4-(3-cyanoimidazo[1,2-a]pyridin-6-yl)-N-cyclopropyl-3-(4-fluorophenyl)-1H-pyrazole-5-carboxamide]
30 | 0.758 µM | CCOC(=O)c1[nH]nc(-c2ccc(F)cc2)c1-c1ccc2nccn2c1 [Example 132, ethyl 3-(4-fluorophenyl)-4-(imidazo[1,2-a]pyridin-6-yl)-1H-pyrazole-5-carboxylate]
31 | 25.3 µM | O=C(O)c1[nH]nc(-c2ccc(F)cc2)c1-c1ccc2nccn2c1 [Example 133, 3-(4-fluorophenyl)-4-(imidazo[1,2-a]pyridin-6-yl)-1H-pyrazole-5-carboxylic acid]
32 | 0.023 µM | C=C(C)c1[nH]nc(-c2ccc(F)cc2)c1-c1ccc2nccn2c1 [Example 136, 6-(3-(4-fluorophenyl)-5-(prop-1-en-2-yl)-1H-pyrazol-4-yl)imidazo[1,2-a]pyridine]
33 | 0.153 µM | CC(C)(O)c1[nH]nc(-c2ccc(F)cc2)c1-c1ccc2nccn2c1 [Example 137, 2-(3-(4-fluorophenyl)-4-(imidazo[1,2-a]pyridin-6-yl)-1H-pyrazol-5-yl)propan-2-ol]
34 | 0.002 µM | CCOC(=O)c1[nH]nc(-c2cccc(C)n2)c1-c1ccc2ncc(C#N)n2c1 [Example 138, ethyl 4-(3-cyanoimidazo[1,2-a]pyridin-6-yl)-3-(6-methylpyridin-2-yl)-1H-pyrazole-5-carboxylate]
35 | 0.274 µM | CC(=O)Nc1[nH]nc(-c2ccc(F)cc2)c1-c1ccc2ncc(C#N)n2c1 [Example 142, N-(4-(3-cyanoimidazo[1,2-a]pyridin-6-yl)-3-(4-fluorophenyl)-1H-pyrazol-5-yl)acetamide]
36 | 0.027 µM | CC(=O)Nc1[nH]nc(-c2ccc(F)cc2)c1-c1ccc2ncc(C(N)=O)n2c1 [Example 143, 6-(5-acetamido-3-(4-fluorophenyl)-1H-pyrazol-4-yl)imidazo[1,2-a]pyridine-3-carboxamide]
